The values that follow come from US20230078764A1 (Yumanity Therapeutics, Inc., priority 2019, published 2023).

In one test the target is T1, human SCD1 (Homo sapiens, UniProt O00767).
T1 construct: expressed in transfected cells; host or cells: yeast strain with OLE1 deleted, plasmid-borne human SCD1 (selected in SD-Ura)
T1 sequence (O00767 1-359): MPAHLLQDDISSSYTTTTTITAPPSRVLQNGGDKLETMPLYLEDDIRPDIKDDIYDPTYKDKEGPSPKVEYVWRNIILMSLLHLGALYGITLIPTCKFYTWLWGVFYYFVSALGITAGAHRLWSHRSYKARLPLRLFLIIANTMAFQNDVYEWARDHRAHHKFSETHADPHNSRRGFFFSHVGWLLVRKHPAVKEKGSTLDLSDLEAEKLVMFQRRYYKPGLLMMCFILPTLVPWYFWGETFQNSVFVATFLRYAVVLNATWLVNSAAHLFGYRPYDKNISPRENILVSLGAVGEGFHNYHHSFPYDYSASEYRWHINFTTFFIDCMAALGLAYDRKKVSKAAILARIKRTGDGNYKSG
The test is described as follows: Growth inhibition of yeast strain expressing human SCD1 as sole desaturase (OLE1 deleted), OD600 readout. The conditions noted are these: yeast strain expressing human SCD1 as sole desaturase; growth (OD600) after 40 h at 30° C.; read-out: SCD1 IC50. In kind it is cell-based.

The target in the next test is T2, human SCD5 (Homo sapiens, UniProt Q86SK9).
T2 construct: expressed in transfected cells; host or cells: yeast strain with OLE1 deleted, plasmid-borne human SCD5 (selected in SD-Ura)
T2 sequence (Q86SK9 1-330): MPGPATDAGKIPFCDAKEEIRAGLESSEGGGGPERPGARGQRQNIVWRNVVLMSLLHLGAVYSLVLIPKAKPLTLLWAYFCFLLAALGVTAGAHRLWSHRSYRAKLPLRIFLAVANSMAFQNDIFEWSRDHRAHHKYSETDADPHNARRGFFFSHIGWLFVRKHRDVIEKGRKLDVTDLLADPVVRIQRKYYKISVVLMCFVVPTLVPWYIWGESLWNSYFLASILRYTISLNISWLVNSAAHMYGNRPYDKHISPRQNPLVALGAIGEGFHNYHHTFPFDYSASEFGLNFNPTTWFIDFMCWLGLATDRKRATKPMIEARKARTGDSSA
Put plainly: Growth inhibition of yeast strain expressing human SCD5 as sole desaturase (OLE1 deleted), OD600 readout. In kind it is cell-based. The conditions noted are these: yeast strain expressing human SCD5 as sole desaturase; growth (OD600) after 40 h at 30° C.; read-out: SCD5 IC50.

What is called pIC50 is the negative decadic logarithm of the IC50, by convention in mol/L.

pIC50: −log10 of the molar value.

As to `CN1N=C(C(=O)Nc2ccc(COc3ccc(F)c(F)c3)cn2)CCC1=O` [Compound 598], the pIC50 at human SCD1 was 4.41; at human SCD5, 6.82.
In the case of `Cn1nc(C(=O)Nc2ccc(COc3ccc(F)cc3)cn2)ccc1=O` [Compound 599], the negative logarithm of the IC50 (pIC50) was below 4.35 on human SCD1 and 6.03 at human SCD5.
Turning to `Cn1cc(C(=O)Nc2ccc(COc3ccccc3)cn2)ccc1=O` [Compound 600], the values for the negative-log IC50 (pIC50) on human SCD1 and on human SCD5 were 4.55 and 5.80, respectively.
As to `O=C(Nc1ccc(Cc2cc(F)cc(F)c2)cn1)c1cnc(Cl)c(Cl)c1` [Compound 601], the pIC50 at human SCD1 is below 4.35; on human SCD5, 7.47.
The like results for `O=C(Nc1ccc(Cc2ccc(F)c(F)c2)cn1)c1cnc(Cl)cn1` [Compound 602] were, in that order, below 4.35 and 7.18.
Take `O=C(Nc1ccc(Cc2ccc(F)c(F)c2)cn1)c1ncc(CO)cn1` [Compound 603]: the pIC50 on human SCD1 and at human SCD5 was 8.00 throughout.
For `CC(O)c1cnc(C(=O)Nc2ccc(Cc3ccc(F)c(F)c3)cn2)nc1` (stereo not shown) [Compound 604], the figures for the negative logarithm of the IC50 (pIC50) on human SCD1 and on human SCD5 were 7.43 and 7.38, respectively.
Regarding `O=C(Nc1ccc(Cc2cccc(Cl)c2)cn1)c1ccc([C@@H](O)CO)nc1` [Compound 605], the pIC50 was 6.55 at human SCD1 and 6.49 on human SCD5.
Turning to `Cc1cc(C(=O)Nc2ccc(Cc3cc(F)cc(C#N)c3)cn2)nc(C)n1` [Compound 606], the results for the pIC50 on human SCD1 and on human SCD5 were 6.21 and 6.77, respectively.
For the compound `CN1N=C(C(=O)Nc2ccc(COc3ccc(F)cc3F)cn2)CCC1=O` [Compound 607], the pIC50 is below 4.35 on human SCD1 and 6.24 at human SCD5.
Consider `N#Cc1ncc(C(=O)Nc2ccc(Cc3cc(F)cc(F)c3)cn2)cc1Cl` [Compound 608], for which the values for the pIC50 on human SCD1 and at human SCD5 were 6.04 and 7.57, respectively.
As to `Cc1cc(C(=O)Nc2ccc(Cc3cc(F)cc(C#N)c3)cn2)nn(C)c1=O` [Compound 609], the figures for the pIC50 on human SCD1 and on human SCD5 were below 4.35 and 6.55, respectively.
On to `Cc1cc(C(=O)Nc2ccc(Cc3ccc(F)c(C#N)c3)cn2)nn(C)c1=O` [Compound 610], for which the pIC50 at human SCD1 is 5.47; on human SCD5, 6.22.
Take `O=C(Nc1ccc(Cc2cccc(F)c2)cn1)c1ncc(Cl)cc1F` [Compound 611]: the pIC50 was below 4.35 at human SCD1 and 6.43 at human SCD5.
As for `N#Cc1cc(C(=O)Nc2ccc(Cc3cc(F)cc(F)c3)cn2)cnc1C#N` [Compound 612], the pIC50 at human SCD1 is 5.36; on human SCD5, 5.92.
On to `COc1cc(Cc2ccc(NC(=O)c3ccc(=O)n(C)c3)nc2)ccn1` [Compound 613], for which the pIC50 at human SCD1 was 5.47; at human SCD5, 6.22.
The like results for `Cn1nc(C(=O)Nc2ccc(Cc3cccc(C#N)c3F)cn2)ccc1=O` [Compound 614] were, in that order, below 4.35 and 5.60.
Taken in the same sequence, the figures for `Cn1nc(C(=O)Nc2ccc(COc3ccccc3Cl)cn2)ccc1=O` [Compound 615] were below 4.35 and 7.10.
Turning to `Cc1cc(C(=O)Nc2ccc(Cc3cc(F)cc(F)c3)cn2)cnc1C#N` [Compound 616], the negative-log IC50 (pIC50) at human SCD1 is 6.28; on human SCD5, 8.00.
Regarding `Cn1cc(C(=O)Nc2ccc(Cc3ccc(Cl)c(C#N)c3)cn2)ccc1=O` [Compound 617], the pIC50 is 6.66 on human SCD1 and 7.41 at human SCD5.
`Cn1cc(C(=O)Nc2ccc(Cc3cc(Cl)cc(C#N)c3)cn2)ccc1=O` [Compound 618]: the pIC50 at human SCD1 was 6.29; at human SCD5, 7.66.
With `Cc1cc(C(=O)Nc2ccc(Cc3cc(F)cc(F)c3)cn2)cnc1Cl` [Compound 619], the pIC50 on human SCD1 was 4.55; at human SCD5, 6.82.
For `Cn1ccc(C(=O)Nc2ccc(Cc3cc(F)cc(C#N)c3)cn2)cc1=O` [Compound 620], the pIC50 on human SCD1 and on human SCD5 was 6.70 throughout.
As to `O=C(Nc1ccc(Cc2ccc(F)c(F)c2)cn1)c1ccnnc1` [Compound 621], the pIC50 was 7.46 at human SCD1 and 7.60 on human SCD5.
`O=C(Nc1ccc(Cc2cc(F)cc(F)c2)cn1)c1ccnnc1` [Compound 622]: the pIC50 at human SCD1 is 7.64; on human SCD5, 7.80.
As to `Cc1cc(C(=O)Nc2ccc(Cc3cccc(F)c3)cn2)cn(C)c1=O` [Compound 623], the values for the pIC50 at human SCD1 and at human SCD5 were 6.63 and 7.72, respectively.
On to `Cc1cc(C(=O)Nc2ccc(Cc3cccc(F)c3)cn2)c(=O)n(C)n1` [Compound 624], for which the pIC50 on human SCD1 was below 4.35; at human SCD5, 7.27.
`Cn1cc(NC(=O)c2ncc(Cc3ccc(F)c(F)c3)cc2F)ccc1=O` [Compound 625]: the pIC50 was 5.32 at human SCD1 and 6.51 at human SCD5.
Regarding `Cn1nc(C(=O)Nc2ccc(Cc3cc(Cl)cc(C#N)c3)cn2)ccc1=O` [Compound 626], the figures for the pIC50 on human SCD1 and at human SCD5 were below 4.35 and 7.85, respectively.
In the case of `N#Cc1cnc(NC(=O)c2ccc(Cc3cccc(F)c3)cn2)nc1` [Compound 627], the values for the negative-log IC50 (pIC50) at human SCD1 and at human SCD5 were 6.49 and 8.00, respectively.
In the case of `N#Cc1cc(F)cc(Cc2ccc(NC(=O)c3cncc(CO)c3)nc2)c1` [Compound 628], the values for the pIC50 on human SCD1 and on human SCD5 were 6.72 and 7.52, respectively.
For the compound `N#Cc1ccc(C(=O)Nc2ccc(Cc3cc(F)ccc3F)cn2)cn1` [Compound 629], the pIC50 is 5.48 at human SCD1 and 6.60 at human SCD5.
In the case of `Cn1ccc(C(=O)Nc2ccc(Cc3cc(F)ccc3F)cn2)cc1=O` [Compound 630], the negative-log IC50 (pIC50) was 5.96 on human SCD1 and 6.49 on human SCD5.
`O=C(Nc1ncc(Br)cn1)c1ccc(Cc2cccc(F)c2)cn1` [Compound 631]: the pIC50 was 6.19 on human SCD1 and 5.66 at human SCD5.
As for `O=C(Nc1ccc(Cc2cccc(F)c2)cn1)c1csc(Br)n1` [Compound 632], the pIC50 was below 4.35 at human SCD1 and 7.15 on human SCD5.
With `O=C(Nc1ccc(Cc2cccc(F)c2)cn1)c1cscn1` [Compound 633], the values for the pIC50 at human SCD1 and at human SCD5 were 5.74 and 6.57, respectively.
Consider `COc1cc(Cc2ccc(NC(=O)c3cnc(Cl)cn3)nc2)ccc1F` [Compound 634], for which the figures for the negative-log IC50 (pIC50) at human SCD1 and on human SCD5 were below 4.35 and 6.55, respectively.
For the compound `O=C(Nc1ccc(Cc2cc(F)cc(F)c2)cn1)c1cnc(Cl)cn1` [Compound 635], the negative logarithm of the IC50 (pIC50) at human SCD1 was below 4.35; at human SCD5, 7.21.
For `N#Cc1cnc(C(=O)Nc2ccc(Cc3cccc(F)c3)cn2)c(F)c1` [Compound 636], the figures for the pIC50 at human SCD1 and at human SCD5 were below 4.35 and 6.85, respectively.
Turning to `O=C(Nc1ccc(C=C2CCOCC2)cn1)c1ccc(CO)nc1` [Compound 637], the pIC50 on human SCD1 was 4.92; on human SCD5 it was 5.09.
Taken in the same sequence, the figures for `COc1cc(Cc2ccc(NC(=O)c3cnc(C#N)cn3)nc2)ccc1F` [Compound 638] were 5.49 and 7.01.
With `N#Cc1cnc(C(=O)Nc2ccc(Cc3cc(F)cc(F)c3)cn2)cn1` [Compound 639], the pIC50 on human SCD1 was 6.31; at human SCD5 it was 7.41.
In the case of `N#Cc1nc(C(=O)Nc2ccc(Cc3cccc(F)c3)cn2)cs1` [Compound 640], the pIC50 on human SCD1 is 5.49; on human SCD5, 5.89.
The like results for `Cn1nc(C(=O)Nc2ccc(Cc3cc(C#N)ccc3F)cn2)ccc1=O` [Compound 641] were, in that order, below 4.35 and 6.27.
`Cn1cc(C(=O)Nc2ccc(Cc3cccc(F)c3)cn2)n(C)c1=O` [Compound 642]: the pIC50 at human SCD1 is 7.04; at human SCD5, 8.00.
Turning to `Cn1cc(C(=O)Nc2ccc(Cc3ccc(F)c(F)c3)cn2)n(C)c1=O` [Compound 643], the pIC50 on human SCD1 is 7.14; on human SCD5, 8.00.
For the compound `Cn1cc(C(=O)Nc2ccc(Cc3cc(F)cc(F)c3)cn2)n(C)c1=O` [Compound 644], the pIC50 was 7.38 at human SCD1 and 8.00 at human SCD5.
Taken in the same sequence, the figures for `O=C(Nc1ccc(Cc2cccc(F)c2)cn1)c1coc(Cl)n1` [Compound 645] were 5.89 and 6.68.
Take `N#Cc1cc(F)cc(Cc2ccc(NC(=O)c3cnc(Cl)cn3)nc2)c1` [Compound 646]: the pIC50 at human SCD1 was below 4.35; at human SCD5, 6.85.
As to `Cn1cc(C(=O)Nc2ccc(C3(c4ccc(F)c(F)c4)CC3)cn2)ccc1=O` [Compound 647], the pIC50 on human SCD1 is 5.03; on human SCD5 it was 5.62.
`Cn1cc(C(=O)Nc2ccc(Cc3cc(C#N)ccc3F)cn2)ccc1=O` [Compound 648]: the pIC50 at human SCD1 was below 4.35; at human SCD5, 6.00.
On to `COc1ncc(C(=O)Nc2ccc(Cc3cccc(Cl)c3)cn2)cn1` [Compound 649], for which the pIC50 at human SCD1 is 5.85; at human SCD5 it was 6.32.
On to `O=C(Nc1ccc(Cc2ccc(F)c(F)c2)cn1)c1ccncc1` [Compound 650], for which the pIC50 on human SCD1 is 6.77; on human SCD5 it was 7.25.
